{"source": "patent US20240293430A1", "about": "“WITHAFERIN A AND IMMUNE CHECKPOINT BLOCKER COMBINATION THERAPIES” (University of South Florida, priority 2023, published 2024)", "test_system": "ecto-CRT in MC38 and HCT-116 colorectal cancer cell lines", "test": "Ecto-CRT by flow cytometry, colorectal cancer", "type": "cell-based, mouse (MC38), human (HCT-116)", "protocol": "FIGS. 8A-8G depict that WFA induced ICD and PD-L1 upregulation in colorectal cancer cell lines. WFA increased the levels of ecto-CRT in the murine colorectal cancer cell line (FIG. 8A) MC-38 and human cell line (FIG. 8B) HCT-116. WFA increased the expression of PD-L1 in both (FIG. 8C) MC-38 and (FIG. 8D) HCT-116 cells. […] H1650 cells (at a higher density) were treated with a higher concentration of WFA (2 and 4 μM) to facilitate cell collection and protein isolation. The band density was quantified using Image J software and normalized to the housekeeping protein. The fold change from untreated control was averaged from two independent experiments ±SEM and one-way ANOVA was used to calculate the statistical significance. A Fisher LSD post hoc test was performed to compare the treatments to the control in (FIG. 8E) LLC, (FIG. 8F) H1650, (FIG. 8G) A549 cells. * p<0.05, ** p<0.01, *** p<0.001, **** p<0.0001.\nIn vitro WFA-treated or control cells were collected using Accutase cell detachment solution and stained with FACS-diluted (PBS, 10% FBS, 2 mMEDTA) pre-titrated fluorophore conjugated or primary unconjugated antibody solutions (Table 1) for 30 min on ice in the dark. […]"}
{"compound": "CC1=C(CO)C(=O)O[C@@H]([C@@H](C)[C@H]2CC[C@H]3[C@@H]4C[C@H]5O[C@]56[C@@H](O)C=CC(=O)[C@]6(C)[C@H]4CC[C@]23C)C1", "note": "[WFA, Withaferin A]", "values": [{"measurement": "levels of ecto-CRT", "value": "increased"}]}
